# Source: patent US20030187000A1, “Inhibitors for de novo-RNA polymerases and methods of identifying targets for same” (priority 2002, published 2003)
# Biological target: T1, NS5B (Hepatitis C virus genotype 1b, UniProt P26663)
# T1 construct: the RNA dependent RNA polymerase from hepatitis C virus (NS5B)
# Assay: Binding studies of thiomethylsulfonate derivatives
# Conditions: among heterocyclic/aromatic-substituted thiomethylsulfonate derivatives of FIG. 1
# Source text: Cys366 was modified by both compounds (i.e., BMTS and MMTS) and is located in the proximity of the primer-binding site (i.e., initiation nucleotide binding site) of the enzyme. […] Based on these observations, it should especially be recognized that specific modification of Cys366 near the primer-binding site may advantageously be employed for rational inhibitor design. Furthermore, it is contemplated that second-generation compounds may even operate without involvement of the Cys366 (i.e., without formation of a covalent bond) by targeting only the small pocket of the NS5B. To explore the binding affinity and specificity to the cysteines near the active sites of NS5B, a exemplary heterocyclic/aromatic-substituted thiomethylsulfonate derivatives were designed and synthesized as depicted in FIG. 1. […] This compound was also soaked into the polymerase NS5B.
# T1 sequence (P26663 2420-3010): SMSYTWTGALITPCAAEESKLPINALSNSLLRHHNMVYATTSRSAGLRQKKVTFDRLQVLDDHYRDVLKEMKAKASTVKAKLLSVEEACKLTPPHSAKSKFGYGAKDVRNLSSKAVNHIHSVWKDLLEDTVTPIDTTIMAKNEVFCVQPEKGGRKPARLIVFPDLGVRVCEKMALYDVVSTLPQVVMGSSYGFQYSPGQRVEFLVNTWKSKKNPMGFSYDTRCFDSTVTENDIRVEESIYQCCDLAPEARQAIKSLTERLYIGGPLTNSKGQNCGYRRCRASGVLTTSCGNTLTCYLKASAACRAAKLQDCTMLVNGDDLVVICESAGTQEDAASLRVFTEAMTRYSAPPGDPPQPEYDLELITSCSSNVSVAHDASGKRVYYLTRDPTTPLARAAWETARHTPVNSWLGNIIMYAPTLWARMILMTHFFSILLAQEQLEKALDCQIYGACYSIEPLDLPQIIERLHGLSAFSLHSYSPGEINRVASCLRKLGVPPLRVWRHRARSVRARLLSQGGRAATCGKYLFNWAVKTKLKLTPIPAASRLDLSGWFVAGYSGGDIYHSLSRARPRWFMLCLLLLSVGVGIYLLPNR
compound,measurement,value
CS(=O)(=O)SCc1ccc(Cl)s1 [(5-chlorothiophen-2-yl)methylthiomethylsulfonate],binding affinity,highest binding affinity
